In publication PMC5268738, “A sequential multi-target Mps1 phosphorylation cascade promotes spindle checkpoint signaling” (eLife, 2017):

How the values were obtained:
[1] = test system: N-terminal fragment of Cdc20 (residues 1–170, Cdc20^N); test: in vitro pull-down of Mps1-treated Mad1^E–Mad2 by Cdc20^N beads; type: binding, human; conditions: Ni^2+ beads with Cdc20^N170-His6; Mad1 pre-treated with kinase domain of Mps1; anti-Mad1 blot
Description: Expression of Cdc20-His6 proteins containing the N-terminal regions of Cdc20 was induced by 1 mM isopropyl β-D-1-thiogalactopyranoside (IPTG) at 37 °C for 6 h. Harvested pellets were lysed in denaturing lysis buffer (100 mM NaH2PO4, 10 mM Tris-HCl, pH 8.0, 8 M Urea), and incubated overnight by gentle rocking at room temperature. After centrifugation, the supernatants were incubated with pre-equilibrated Ni^2+-NTA beads (Qiagen). Protein-bound beads were washed with 15 volumes of denaturing wash buffer (100 mM NaH2PO4, 10 mM Tris-HCl, pH 6.3, 8 M Urea). The proteins were then eluted with denaturing elution buffer (100 mM NaH2PO4, 10 mM Tris-HCl, pH 4.5, 8 M Urea). The eluted proteins were then dialyzed into the storage buffer (50 mM Tris, pH 8.0, 200 mM NaCl, 5% glycerol, 1 mM β-mercaptoethanol). […]
For kinase assays, 1 μM Cdc20^ΔN60, 40 μM Mad1^E–Mad2, or 400 nM Bub1^ΔK–Bub3 was incubated with 40 nM Bub1, 500 nM Mps1, and/or 50 nM Cdk1–Cyclin B1 at room temperature for 30 min in the kinase buffer (25 mM Tris-HCl, pH 7.7, 100 mM NaCl, 10 mM MgCl2, 5 mM NaF, 20 mM β-glycerophosphate, 0.1 mM Na3VO4 and 1 mM DTT) supplemented with 1 mM ATP. The reaction mixtures were stopped with the appropriate kinase inhibitors for further protein-binding assays, or quenched with the SDS loading buffer and analyzed by Coomassie blue staining or Western blotting. […]

[2] = test system: Bub1 S459 phosphorylation in HeLa cells; conditions: nocodazole and MG132; reversine 1 µM
Description: HeLa Tet-On cells were initially purchased from Clontech (Mountain View, CA), and were cultured in Dulbecco’s Modified Eagle Medium (DMEM, Invitrogen, Carlsbad, CA) supplemented with 10% fetal bovine serum and 2 mM L-glutamine. The cells were authenticated by genome sequencing and metaphase chromosome spread, and were routinely checked by 4',6-diamidino-2-phenylindole (DAPI) staining to ascertain that they were free of mycoplasma contamination. For G1/S synchronization, cells were treated with 2 mM thymidine (Sigma, St. Louis, MO) for 14–16 hr. For mitotic arrest, cells were treated with 330 nM or 1 µM nocodazole (Sigma) or 100 nM taxol (Sigma) for 12–14 hr. Other chemicals used in this study were: RO3306 (Sigma) at 20 µM, BI 2536 (Selleck Chemicals, Houston, TX) at 1 µM, MG132 (Selleck Chemicals) at 10 µM, okadaic acid (LC lab, Woburn, MA) at 500 nM, and reversine (Cayman Chemical, Ann Arbor, MI) at 1 µM.

APC/C^Cdc20 = APC/C^Cdc20 inhibition by MCC components (securin ubiquitination assay); type: biochemical, Xenopus APC/C, human Cdc20; conditions: Bub1–Mad1 mixture, Cdc20^ΔN60, Mad2^Mono, BubR1^N; reversine 10 μM where used

- binding of Mps1-treated Mad1^E–Mad2 to Cdc20^N (in words) [1]: greatly reduced this interaction
SMILES: c1nc2nc(Nc3ccc(N4CCOCC4)cc3)nc(NC3CCCCC3)c2[nH]1 [reversine, reference compound]
- Bub1 S459 phosphorylation in mitosis (in words) [2]: reduced
- APC/C^Cdc20 inhibition by the MCC mixture with Bub1–Mad1 mixture (in words) (APC/C^Cdc20): greatly weakened APC/C^Cdc20 inhibition by the MCC mixture
